Assay results reported in ChEMBL document CHEMBL1201862, “PubChem BioAssay data set” (2004).
Calls of active or inactive are those of the source.

What was measured:
Fatty acid synthase [1] = molecular target: T1, Fatty acid synthase (Homo sapiens, UniProt P49327); experiment: inhibition of human FAS-TE enzyme activity – biochemical, endpoint fluorescence intensity, uHTS hits, dose response (AID 624327); format: functional;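 also: fluorescence from hydrolysis of an O-methyl fluorescein acyl ester substrate by the enzyme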
T1 sequence (P49327 whole entry): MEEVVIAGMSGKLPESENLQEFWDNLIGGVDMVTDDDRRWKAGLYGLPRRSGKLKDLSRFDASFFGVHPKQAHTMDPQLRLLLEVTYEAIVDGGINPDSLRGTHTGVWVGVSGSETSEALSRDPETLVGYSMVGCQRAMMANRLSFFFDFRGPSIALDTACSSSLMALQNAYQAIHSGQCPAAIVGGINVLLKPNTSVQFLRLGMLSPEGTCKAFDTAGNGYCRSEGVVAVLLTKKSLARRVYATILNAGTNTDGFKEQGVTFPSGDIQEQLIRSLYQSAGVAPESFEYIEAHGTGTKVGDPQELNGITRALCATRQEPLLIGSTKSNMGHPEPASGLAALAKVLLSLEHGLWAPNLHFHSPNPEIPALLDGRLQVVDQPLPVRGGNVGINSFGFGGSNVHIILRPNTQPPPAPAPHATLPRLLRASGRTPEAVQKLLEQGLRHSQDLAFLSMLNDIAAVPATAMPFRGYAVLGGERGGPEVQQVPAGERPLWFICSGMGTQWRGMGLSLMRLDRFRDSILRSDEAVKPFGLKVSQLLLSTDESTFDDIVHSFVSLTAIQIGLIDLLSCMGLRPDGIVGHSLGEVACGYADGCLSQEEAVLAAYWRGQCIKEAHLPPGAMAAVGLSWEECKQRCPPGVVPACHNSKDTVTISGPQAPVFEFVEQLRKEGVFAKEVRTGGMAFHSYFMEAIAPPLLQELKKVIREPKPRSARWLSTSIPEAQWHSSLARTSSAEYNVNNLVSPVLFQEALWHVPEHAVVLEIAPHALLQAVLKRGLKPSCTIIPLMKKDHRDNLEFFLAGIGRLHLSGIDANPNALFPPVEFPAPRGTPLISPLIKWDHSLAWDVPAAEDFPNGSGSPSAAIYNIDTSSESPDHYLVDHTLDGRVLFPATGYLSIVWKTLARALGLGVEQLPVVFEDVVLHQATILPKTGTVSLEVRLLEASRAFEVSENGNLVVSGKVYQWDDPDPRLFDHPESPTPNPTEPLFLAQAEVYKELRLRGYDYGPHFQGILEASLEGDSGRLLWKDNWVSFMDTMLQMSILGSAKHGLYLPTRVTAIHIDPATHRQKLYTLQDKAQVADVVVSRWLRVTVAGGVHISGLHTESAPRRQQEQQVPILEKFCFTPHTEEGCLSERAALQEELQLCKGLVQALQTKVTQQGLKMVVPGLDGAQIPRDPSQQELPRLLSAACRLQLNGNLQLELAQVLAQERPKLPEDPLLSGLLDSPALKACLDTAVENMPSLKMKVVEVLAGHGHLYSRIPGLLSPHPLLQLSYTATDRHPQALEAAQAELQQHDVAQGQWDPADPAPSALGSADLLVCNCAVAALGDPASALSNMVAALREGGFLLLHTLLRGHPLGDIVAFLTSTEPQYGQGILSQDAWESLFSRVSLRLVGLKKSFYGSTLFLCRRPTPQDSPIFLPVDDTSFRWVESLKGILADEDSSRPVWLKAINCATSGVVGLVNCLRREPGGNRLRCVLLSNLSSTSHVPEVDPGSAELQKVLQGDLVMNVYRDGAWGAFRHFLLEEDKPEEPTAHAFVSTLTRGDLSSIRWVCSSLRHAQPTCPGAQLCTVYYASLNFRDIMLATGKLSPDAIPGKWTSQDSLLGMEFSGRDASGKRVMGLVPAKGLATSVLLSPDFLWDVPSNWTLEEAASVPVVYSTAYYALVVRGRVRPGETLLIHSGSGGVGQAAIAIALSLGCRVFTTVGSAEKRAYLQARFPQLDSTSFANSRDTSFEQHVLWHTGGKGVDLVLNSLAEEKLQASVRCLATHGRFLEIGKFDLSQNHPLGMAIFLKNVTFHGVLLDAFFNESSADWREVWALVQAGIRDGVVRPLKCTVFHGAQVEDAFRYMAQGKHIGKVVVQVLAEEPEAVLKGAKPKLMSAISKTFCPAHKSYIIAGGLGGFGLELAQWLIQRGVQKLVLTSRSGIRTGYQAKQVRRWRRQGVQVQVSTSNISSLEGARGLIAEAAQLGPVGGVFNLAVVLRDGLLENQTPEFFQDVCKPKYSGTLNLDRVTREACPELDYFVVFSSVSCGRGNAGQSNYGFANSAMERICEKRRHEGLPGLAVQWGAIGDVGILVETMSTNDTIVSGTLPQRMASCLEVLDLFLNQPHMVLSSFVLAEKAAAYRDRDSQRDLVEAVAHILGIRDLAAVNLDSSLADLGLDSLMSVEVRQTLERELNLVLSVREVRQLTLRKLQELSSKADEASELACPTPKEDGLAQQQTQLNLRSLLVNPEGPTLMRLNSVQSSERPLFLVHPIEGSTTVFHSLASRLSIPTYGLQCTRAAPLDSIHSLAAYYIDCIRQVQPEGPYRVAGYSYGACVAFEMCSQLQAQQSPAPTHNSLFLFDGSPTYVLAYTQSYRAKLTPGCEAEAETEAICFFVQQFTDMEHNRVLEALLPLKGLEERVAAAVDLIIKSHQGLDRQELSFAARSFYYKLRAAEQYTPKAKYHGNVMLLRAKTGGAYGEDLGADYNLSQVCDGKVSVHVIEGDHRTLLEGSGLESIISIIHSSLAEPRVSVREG

Fatty acid synthase [2] = molecular target: T1, Fatty acid synthase; experiment: inhibition of human FAS-TE enzyme activity – biochemical, kinetic fluorescence intensity, dose response (AID 624326); format: functional;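 also: rate of fluorescence rise from hydrolysis of a fluorogenic O-methyl fluorescein ester substrate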
H9c2 = experiment: cells; format: functional, cell-based; conditions: Rattus norvegicus, H9c2, Myocardium;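 also: confirmatory concentration-response retest of ultra-high-throughput screening hits for modulation of myocardial damage; cell death induced by hydrogen peroxide oxidative stress; compound pretreatment for 60 min then peroxide exposure for 2 h; potency is for protecting the cells against peroxide damage rather than for killing them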
[3] = molecular target: T2, Ubiquitin-conjugating enzyme E2 N (Homo sapiens, UniProt P61088); format: functional;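 also: Dose-response confirmation in a TR-FRET assay detecting UBC13-driven polyubiquitin chain formation, inhibition measured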
T2 sequence (P61088 whole entry): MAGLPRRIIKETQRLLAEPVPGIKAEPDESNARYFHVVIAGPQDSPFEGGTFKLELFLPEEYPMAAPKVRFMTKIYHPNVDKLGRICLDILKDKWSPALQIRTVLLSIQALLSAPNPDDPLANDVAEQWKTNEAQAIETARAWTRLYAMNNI

[4] = NIH-3T3 fibroblast cytotoxicity, dose response, cytotoxicity control, cell-based, fluorescence, Alamar Blue, secondary assay (AID 2327); format: functional;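 also: NIH-3T3 mouse fibroblasts cultured with fluconazole at 8 µg/mL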
[5] = fluconazole-exposed Candida albicans growth modulators – fluorescence, retest, confirmation (AID 2467); format: functional, cell-based
[6] = molecular target: T3, Zinc finger protein mex-5 (Caenorhabditis elegans, UniProt Q9XUB2); experiment: potency of MEX-5 RNA-binding blockers – biochemical, C. elegans, fluorescence polarization, dose response (AID 1960)
T3 sequence (Q9XUB2 whole entry): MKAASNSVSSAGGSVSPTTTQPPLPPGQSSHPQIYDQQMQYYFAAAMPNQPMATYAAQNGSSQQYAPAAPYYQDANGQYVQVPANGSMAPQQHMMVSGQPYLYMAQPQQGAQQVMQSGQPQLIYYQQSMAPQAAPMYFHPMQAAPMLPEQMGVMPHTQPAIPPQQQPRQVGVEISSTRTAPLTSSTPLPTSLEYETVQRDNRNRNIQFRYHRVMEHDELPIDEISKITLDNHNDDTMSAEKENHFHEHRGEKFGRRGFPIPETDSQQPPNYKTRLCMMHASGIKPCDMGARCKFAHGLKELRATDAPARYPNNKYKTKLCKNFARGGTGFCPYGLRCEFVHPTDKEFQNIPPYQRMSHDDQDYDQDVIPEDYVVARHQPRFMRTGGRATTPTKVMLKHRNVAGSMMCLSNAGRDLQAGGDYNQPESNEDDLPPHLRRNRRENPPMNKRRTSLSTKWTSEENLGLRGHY

[7] = molecular target: T4, RNA-binding protein pos-1 (Caenorhabditis elegans, UniProt G5EF15); experiment: disruptors of C. elegans POS-1 RNA interaction – biochemical, fluorescence polarization, dose response (AID 1964);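 also: purified POS-1 fused to maltose binding protein made in E. coli; potency of compounds blocking POS-1 binding to fluorescent RNA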
T4 sequence (G5EF15 whole entry): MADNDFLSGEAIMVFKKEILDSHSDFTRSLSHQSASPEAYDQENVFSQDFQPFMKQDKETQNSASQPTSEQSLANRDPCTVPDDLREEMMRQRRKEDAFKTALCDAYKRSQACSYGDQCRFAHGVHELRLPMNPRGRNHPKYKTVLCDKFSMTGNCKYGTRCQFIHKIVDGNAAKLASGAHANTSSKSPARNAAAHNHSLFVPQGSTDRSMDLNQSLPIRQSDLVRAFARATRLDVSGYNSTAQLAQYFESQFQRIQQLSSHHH

Protein RecA = molecular target: T5, Protein RecA (Mycobacterium tuberculosis, UniProt P9WHJ3); experiment: Fluorescence Cell-Free Homogeneous Dose Retest to Identify Inhibitors of RecA-Intein Splicing Activity. [Related pubchem assays (depositor defined):AID2097, AID2223, AID489010, AID492950]; format: functional
T5 sequence (P9WHJ3 whole entry): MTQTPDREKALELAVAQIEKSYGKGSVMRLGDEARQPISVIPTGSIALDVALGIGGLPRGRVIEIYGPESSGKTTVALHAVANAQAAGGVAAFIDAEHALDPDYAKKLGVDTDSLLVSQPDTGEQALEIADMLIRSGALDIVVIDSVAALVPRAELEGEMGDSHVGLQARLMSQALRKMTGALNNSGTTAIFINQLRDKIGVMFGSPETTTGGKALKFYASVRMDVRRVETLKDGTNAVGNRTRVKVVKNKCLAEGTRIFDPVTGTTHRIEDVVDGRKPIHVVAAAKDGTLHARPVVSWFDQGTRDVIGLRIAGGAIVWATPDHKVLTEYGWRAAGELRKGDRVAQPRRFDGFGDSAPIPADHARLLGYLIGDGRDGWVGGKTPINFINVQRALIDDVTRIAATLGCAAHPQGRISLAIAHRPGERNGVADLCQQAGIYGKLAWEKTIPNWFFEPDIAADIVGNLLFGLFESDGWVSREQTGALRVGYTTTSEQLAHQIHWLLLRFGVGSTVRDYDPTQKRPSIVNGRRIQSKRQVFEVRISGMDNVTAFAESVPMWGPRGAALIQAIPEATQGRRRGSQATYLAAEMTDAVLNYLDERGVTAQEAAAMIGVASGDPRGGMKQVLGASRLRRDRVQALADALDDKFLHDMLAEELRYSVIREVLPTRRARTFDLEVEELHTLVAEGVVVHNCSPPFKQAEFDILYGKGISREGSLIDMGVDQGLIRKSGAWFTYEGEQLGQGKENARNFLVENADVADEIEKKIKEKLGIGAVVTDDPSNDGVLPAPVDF

[8] = molecular target: T6, Replicative DNA helicase DnaB (Mycobacterium tuberculosis, UniProt P9WMR3); experiment: DnaB intein splicing inhibitors, dose response, biochemical, cell-free fluorescence (AID 449749); format: functional
T6 sequence (P9WMR3 whole entry): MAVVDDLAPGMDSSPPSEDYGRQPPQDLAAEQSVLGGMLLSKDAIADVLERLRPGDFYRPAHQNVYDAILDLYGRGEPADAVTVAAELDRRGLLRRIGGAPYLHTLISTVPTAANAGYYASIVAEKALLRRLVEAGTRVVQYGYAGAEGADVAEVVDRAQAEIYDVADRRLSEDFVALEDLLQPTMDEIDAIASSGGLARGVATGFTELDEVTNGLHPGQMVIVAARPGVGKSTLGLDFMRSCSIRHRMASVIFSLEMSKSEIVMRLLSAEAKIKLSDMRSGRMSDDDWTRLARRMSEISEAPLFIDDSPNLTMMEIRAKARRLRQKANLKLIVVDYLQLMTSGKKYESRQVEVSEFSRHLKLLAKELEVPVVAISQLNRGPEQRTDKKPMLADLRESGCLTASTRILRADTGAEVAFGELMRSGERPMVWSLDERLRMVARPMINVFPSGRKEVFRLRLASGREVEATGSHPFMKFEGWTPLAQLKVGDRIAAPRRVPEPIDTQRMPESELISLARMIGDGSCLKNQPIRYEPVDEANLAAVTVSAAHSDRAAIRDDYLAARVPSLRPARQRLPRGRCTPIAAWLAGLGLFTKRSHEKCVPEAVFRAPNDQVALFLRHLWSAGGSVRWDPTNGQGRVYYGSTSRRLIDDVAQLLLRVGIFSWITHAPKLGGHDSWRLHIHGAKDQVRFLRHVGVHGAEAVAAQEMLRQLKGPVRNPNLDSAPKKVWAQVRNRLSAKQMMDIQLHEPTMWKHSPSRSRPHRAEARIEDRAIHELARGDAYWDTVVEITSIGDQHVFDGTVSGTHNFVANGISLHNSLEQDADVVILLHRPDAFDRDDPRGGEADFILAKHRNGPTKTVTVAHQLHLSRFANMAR

cells = format: functional
[9] = molecular target: Heat shock protein HSP 90-alpha (Homo sapiens, UniProt P07900); format: functional, organism-based
[10] = Luminescence Cell-Based Dose Confirmation HTS to Identify Activators of 5'UTR Stem-Loop Driven Alpha-Synuclein mRNA Translation in H4 Neuroglioblastoma Cells. [Related pubchem assays: 1829 (Project Summary), 1814 (Primary HTS)]; format: functional
H4 = experiment: Luminescence Cell-Based Dose Response HTS to Identify Activators of 5'UTR Stem-Loop Driven Prion Protein mRNA Translation in H4 Neuroglioblastoma Cells. [Related pubchem assays: 1829 (Project Summary), 1814 (Primary HTS)]; format: functional; conditions: Homo sapiens
[11] = Luminescence Cell-Based Dose Response HTS to Identify Activators of Luciferase Translation or Activity in H4 […] Cells. [Related pubchem assays: 1829 (Project Summary), 1814 (Primary HTS)]; format: functional
Vero = experiment: cells; format: functional; conditions: Chlorocebus sabaeus
[12] = off-target signal loss in HeLa-CEM21 co-culture – HeLa F-luc CTL cells, cherry-picked, counter-screen for HIV-1 Env fusion inhibitor project, dose response (AID 652040); format: functional, cell-based;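 also: potency for signal decrease marking cytotoxic or nonspecific inhibition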
[13] = blockers of HIV-1 envelope-mediated cell-cell fusion – cherry-pick, dose response (AID 652057); format: functional, cell-based
[14] = HIV-1 AD8 envelope cell-cell fusion blockers – cherry-pick, dose response (AID 652062); format: functional, cell-based;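 also: luciferase signal from cell-cell fusion driven by HIV-1 clade B AD8 Env; potency is for inhibitors of fusion seen as a drop in luminescence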
[15] = Luminescence Cell-Based Dose Retest to Confirm Inhibitors of Cancer Stem Cells. [Related pubchem assays (depositor defined):AID2717, AID2721]; format: functional; conditions: Homo sapiens

COc1cc(OC)c(C2=NOC(C(=O)N3CCc4ccccc4C3)C2)cc1Cl (stereo unspecified)
IC50 (Fatty acid synthase [1]): 3.02 µM (active) | IC50 (Fatty acid synthase [2]): 2.28 µM (active)

O=C(NCc1ccccc1)/C(=C/c1cccc([N+](=O)[O-])c1)NC(=O)c1ccco1
IC50 (Fatty acid synthase [1]): 4.49 µM (active) | IC50 (Fatty acid synthase [2]): 4.38 µM (active)

NC(=O)c1nsc(C(=O)N(c2ccccc2F)C(C(=O)NCc2ccc(F)cc2)c2ccc(O)cc2)c1N (stereo unspecified)
IC50 (H9c2): 29.8 µM (active) | IC50 [3]: > 20 µM (inactive)

CCOc1ccc(Nc2nc(NCC3CCCO3)c3ccccc3n2)cc1 (stereo unspecified)
EC50 [4]: 33.5 µM (inconclusive) | EC50 [5]: 2.32 µM (active) | IC50 [3]: > 20 µM (inactive)

COc1c(O)cccc1[C@@H](O)C1CCN(CCc2ccc(F)cc2)CC1
EC50 [6]: 14.1 µM (inconclusive) | EC50 [7]: 13.8 µM (active)

COC(=O)CCCCCN1C(=O)/C(=C\c2ccncc2)SC1=S
EC50 (Protein RecA): 17.7 µM (active) | AC50 [8]: 12.2 µM (active) | IC50 (cells): 7.86 µM (active)

Cc1ccc(N2C(=O)C3C4C=CC(CN=C(S)N5CCN(c6ccccn6)CC5)(O4)C3C2=O)cc1 (stereo unspecified)
AC50 [9]: 7.77 µM (active)

COc1ccc(C2=NOC(COC(=O)c3ccc4ccccc4n3)C2)cc1 (stereo unspecified)
EC50 [10]: 17.2 µM (active) | IC50 (cells): 9.07 µM (active) | EC50 (H4): 4.71 µM (active) | EC50 [11]: > 120 µM (not active)

CC(=O)N1CCN(S(=O)(=O)c2cccc(C(=O)OCc3ccc(C(C)(C)C)cc3)c2)CC1
IC50 (Fatty acid synthase [1]): 0.376 µM (active) | IC50 (Fatty acid synthase [2]): 0.205 µM (active)

CCc1ccc(C(=O)NNC(=O)c2ccc(=O)n(C)n2)cc1
EC50 [6]: 6.42 µM (active) | EC50 [7]: > 300 µM (not active)

O=C1CC(N2CCCN(C3CC(=O)N(c4ccc(F)cc4)C3=O)CC2)C(=O)N1c1ccc(F)cc1 (stereo unspecified)
AC50 [9]: 4.32 µM (active)

Cc1ccccc1C(CC(=O)c1cccs1)C(C#N)C#N (stereo unspecified)
CC50 (Vero): 17 µM (active) | EC50 (Protein RecA): 1.17 µM (active) | AC50 [8]: > 380 µM (inconclusive)

CC(=O)OCCN(C)c1cc(SC(C)C)c2nonc2c1[N+](=O)[O-]
EC50 (Protein RecA): > 380 µM (inactive) | AC50 [8]: > 380 µM (inactive) | IC50 (cells): 41.4 µM (active)

CCCOc1ccc(C(F)(F)F)cc1NC(=O)CCc1c(C)noc1C
AC50 [12]: 24.2 µM (active) | AC50 [13]: 11.6 µM (active) | AC50 [14]: 51.4 µM (active)

COc1ccc(/C=C2/Sc3ccc(C(=O)NCCN4CCCCCC4)cc3NC2=O)cc1
IC50 [3]: > 20 µM (inactive)

COc1ccc2[nH]c(C(=O)N3CCC(CO)(Cc4cccc(C(F)(F)F)c4)CC3)c(C)c2c1
CC50 (Vero): > 25 µM (active)

COc1ccccc1-c1sc2cc3c(cc2c1C#Cc1cncn1C)OCO3
AC50 [15]: 4.18 µM (active) | IC50 [3]: > 20 µM (inactive)

CN1CCN(CCCNC(=O)c2cn(C3CCCCC3)c(=O)c3c2c2ccccc2n3C)CC1
IC50 [3]: > 20 µM (inactive)

CCc1ccc(S(=O)(=O)c2nnn3c2nc(NCCNC(C)=O)c2ccccc23)cc1
IC50 (Fatty acid synthase [1]): 3.84 µM (active) | IC50 (Fatty acid synthase [2]): 3.5 µM (active)

O=C(c1ccccc1F)N1CCN(Cc2cccc(Cl)c2)CC1
AC50 [12]: > 70 µM (inactive) | AC50 [14]: 3.83 µM (active)

Cc1ccc(C(=O)CSc2nc3c(=O)n(C)c(=O)n(C)c3[nH]2)cc1
EC50 [6]: > 300 µM (not active) | EC50 [7]: > 300 µM (not active)

O=C(COc1ccc([N+](=O)[O-])cc1)Nc1ccc2c(c1)CCC2
IC50 (Fatty acid synthase [1]): 14.6 µM (active) | IC50 (Fatty acid synthase [2]): 6.78 µM (active)

O=C(N/N=C/c1ccc(-c2cccc([N+](=O)[O-])c2)o1)c1ccc([N+](=O)[O-])cc1
EC50 [6]: > 300 µM (not active) | IC50 (H9c2): > 79 µM (inactive) | EC50 [7]: > 300 µM (not active)

CCN(CC)C(=O)C1CCCN(c2ccc([N+](=O)[O-])cc2/C=N/NC(=O)c2cccc(O)c2)C1 (stereo unspecified)
IC50 (Fatty acid synthase [1]): 1.93 µM (active) | IC50 (Fatty acid synthase [2]): 1.57 µM (active)

C/C(=N\Nc1ncc(Cl)cc1Cl)c1ccc(OC(F)F)cc1
IC50 (Fatty acid synthase [1]): 16.1 µM (active) | IC50 (Fatty acid synthase [2]): 14.2 µM (active)

Cc1cccc(C(=O)Oc2ccc(/C=N/NC(=O)Cc3ccc([N+](=O)[O-])cc3)cc2)c1
IC50 [3]: > 20 µM (inactive)

O=C(O)CCC(=O)NNc1nc(-c2ccccc2)c2cc(Cl)ccc2n1
EC50 [6]: 9.18 µM (active) | EC50 [7]: > 300 µM (not active)
